Read-outs that look alike come from different tables or passages of the source.
What was measured:
[1] = biological target: recombinant human IV PLA2 (Homo sapiens, UniProt P47712); assay: biochemical; conditions: for inhibition at 5 µM: read-out: inhibition of IV PLA2 enzyme activity
[2] = system: PGE2 production in HaCaT cells; assay: A23187-induced PGE2 release in LPS-stimulated HaCaT cells (PGE2 EIA); assay type: cell-based; conditions: Homo sapiens, 0.5 h, read-out: IC50 for inhibiting A23187-induced PGE2 release
[3] = system: HaCaT cells; assay: MTT assay (toxicity); assay type: cell-based, human
Procedure: Confluent cells were pretreated with inhibitors in serum free medium for 1 hour, and then treated with stimulating agent for 1 hour. Conversion of substrate [3-(4, 5-dimethylthiazol-2-yl)-2, 5-diphenyl tetrazolium bromide] was measured as optical density at 580 nm after 4 hours according to Mosmann [Mosmann T, J. Immunol. Methods 65, 55-63, 1983]. For each concentration of inhibitor nine parallels were measured.

[4] = read-out: IC50 for IV PLA2 inhibition

Sequence of recombinant human IV PLA2 (P47712 whole entry): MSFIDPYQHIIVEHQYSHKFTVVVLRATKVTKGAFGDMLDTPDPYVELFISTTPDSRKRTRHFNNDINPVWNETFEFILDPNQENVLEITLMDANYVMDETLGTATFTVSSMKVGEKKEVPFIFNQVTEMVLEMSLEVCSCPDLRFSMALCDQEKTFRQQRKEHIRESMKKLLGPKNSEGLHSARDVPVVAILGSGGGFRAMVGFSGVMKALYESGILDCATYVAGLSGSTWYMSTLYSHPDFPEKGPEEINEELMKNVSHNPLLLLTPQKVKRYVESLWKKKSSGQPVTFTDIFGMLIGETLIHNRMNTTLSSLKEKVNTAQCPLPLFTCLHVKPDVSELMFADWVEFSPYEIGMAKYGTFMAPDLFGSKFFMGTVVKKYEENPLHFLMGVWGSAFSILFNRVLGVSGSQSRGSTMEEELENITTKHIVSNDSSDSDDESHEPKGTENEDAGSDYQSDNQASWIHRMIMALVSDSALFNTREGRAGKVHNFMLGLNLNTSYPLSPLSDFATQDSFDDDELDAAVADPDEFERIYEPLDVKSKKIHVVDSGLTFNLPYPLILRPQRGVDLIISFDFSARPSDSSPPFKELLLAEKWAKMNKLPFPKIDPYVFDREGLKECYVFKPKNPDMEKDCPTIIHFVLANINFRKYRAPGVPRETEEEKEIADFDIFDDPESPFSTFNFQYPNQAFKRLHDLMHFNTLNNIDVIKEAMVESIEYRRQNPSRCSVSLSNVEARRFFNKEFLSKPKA

Structure (SMILES)	inhibition at 5 µM [1] [%]	IC50 [1, 4] [µM]	further results
CCCCC/C=C\C/C=C\C/C=C\C/C=C\CCCC(=O)C(F)(F)F [AACOCF3, reference compound]	75 to 80	–	IC50 [1]: 5.8 ± 1.9 µM
CC/C=C\C/C=C\C/C=C\C/C=C\C/C=C\C/C=C\CCC(=O)C(F)(F)F [DHACOCF3]	30	21.3 ± 1.5	–
CC/C=C\C/C=C\C/C=C\C/C=C\C/C=C\CCCC(=O)C(F)(F)F [EPACOCF3]	75 to 80	2.9 ± 1.9	IC50 ([2]; HaCaT): 0.18 µM
CS(=O)(=O)Nc1ccc([N+](=O)[O-])cc1OC1CCCCC1 [NS-398, reference compound]	–	–	IC50 ([2]; LPS-stimulated HaCaT cells, inhibitor 0.2-25 μM for 30 min, FIG. 4): 0.24 µM
CNc1ccc2oc(C[C@H]3O[C@@]4(CC[C@H]3C)O[C@H]([C@H](C)C(=O)c3ccc[nH]3)[C@H](C)C[C@H]4C)nc2c1C(=O)O [A23187]	–	–	toxic concentration by MTT assay [3]: higher than 10 μM
CC/C=C\C/C=C\C/C=C\C/C=C\C/C=C\CCSCC(=O)C(F)(F)F [EPASCOCF3]	75 to 80	3.5	–

Reference: patent US9375409B2, “Use of polyunsaturated ketones for the treatment of psoriasis” (Avexxin AS, priority 2002, dated 2016)
